For CC(C)=CC1C[C@@](C)(O[C@@H]2OC[C@H](O)C(O)C2O)C2C3CCC4[C@@]5(C)CC[C@H](O[C@@H]6OC[C@H](O)C(O[C@@H]7OC(CO)[C@@H](O)C(O)C7O)C6O[C@@H]6O[C@@H](CO)C(O)C6O)C(C)(C)C5CC[C@@]4(C)[C@@]34CO[C@@]2(C4)O1 (stereo partly drawn), the melting point was 248 to 256 °C.
CC(C)=CC1C[C@@](C)(O[C@@H]2OC[C@H](O)C(O)C2O)C2C3CCC4[C@@]5(C)CC[C@H](O[C@@H]6OC(CO)[C@@H](O)C(O[C@@H]7OC(CO)[C@@H](O)C(O)C7O)C6O[C@@H]6O[C@@H](CO)C(O)C6O)C(C)(C)C5CC[C@@]4(C)[C@@]34CO[C@@]2(C4)O1 (stereo partly drawn) gave a melting point of 246 to 258 °C.
CC(C)=C[C@H]1CO[C@]23C[C@]4(CO2)C(CCC2[C@@]5(C)CC[C@H](O[C@@H]6OC(CO)[C@@H](O)C(O[C@@H]7OC(CO)[C@@H](O)C(O)C7O)C6O)C(C)(C)C5CC[C@]24C)C3[C@]1(C)O (stereo partly drawn) showed a melting point of 278 to 282 °C.

From patent US8541381B2, “Process for producing enriched fractions containing up to 100% of bacopasaponins from the plant materials of bacopa species” (Laila Impex, priority 2005, dated 2013)
